Results published in article PMC8587151, “Dibenzofuran Derivatives Inspired from Cercosporamide as Dual Inhibitors of Pim and CLK1 Kinases” (Molecules, 2021).
Values joined by “and” are separate entries in the source; they are usually repeats but may differ in a detail not shown here. Equal entries are not always repeated. Where two headings read alike, the source gives them in different places.

How the values were obtained:
HsPim-1 = molecular target: T1, HsPim-1 (Homo sapiens, UniProt P11309); test: Kinase assay, luminescent ADP-Glo, 10 µM ATP; format: biochemical; details: ADP-Glo, 10 µM ATP
T1 construct: made in house; host or cells: Escherichia coli BL21 DE3 pLysS
T1 sequence (P11309 whole entry): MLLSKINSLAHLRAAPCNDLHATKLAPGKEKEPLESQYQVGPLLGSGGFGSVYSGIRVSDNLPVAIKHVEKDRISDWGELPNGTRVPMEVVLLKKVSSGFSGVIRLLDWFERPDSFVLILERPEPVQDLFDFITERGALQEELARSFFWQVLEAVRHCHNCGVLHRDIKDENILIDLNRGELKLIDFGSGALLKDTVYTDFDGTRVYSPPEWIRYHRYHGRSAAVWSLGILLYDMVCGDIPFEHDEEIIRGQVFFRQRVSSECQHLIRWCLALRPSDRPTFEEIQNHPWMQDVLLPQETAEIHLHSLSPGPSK
Protocol: (§1) The synthesized compounds were tested using a luminescence-based assay against a panel of nine kinases: Pim-1, Pim-2, CDK5/p25, CDK9/CyclinT, Haspin, CK1ε, and GSK3β (from human); DYRK1A (from Rattus norvegicus); and CLK1 (from Mus musculus).
(§2) Kinase enzymatic activities were assayed with 10 µM ATP in 384-well plates using the luminescent ADP-Glo^TM assay (Promega, Madison, WI, USA) according to the recommendations of the manufacturer (see [56] for details on this method). The transmitted signal was measured using the Envision (PerkinElmer, Waltham, MA, USA) microplate luminometer and expressed in relative light unit (RLU). In order to determine the half maximal inhibitory concentration (IC50), the assays were performed in duplicate in the absence or presence of increasing doses of the tested compounds. GraphPad Prism6 software (GraphPad Software, San Diego, CA, USA) was used to fit dose–response curves and to determine the IC50 values. Kinase activities are expressed in % of maximal activity, i.e., measured in the absence of inhibitor. Peptide substrates were obtained from Proteogenix (Schiltigheim, France).
(§3) For kinases expressed in bacteria, the Escherichia coli BL21 DE3 pLysS strain (Invitrogen, ThermoFisher Scientific, Waltham, MA, USA) was transformed with pGEX-2T-1 (Sigma-Aldrich, St. Louis, MO, USA) containing the coding region of the corresponding kinase. For kinases expressed in Sf9 insect cells, the coding region of the corresponding kinase was cloned in pFastBac^TM vector. Purification of the recombinant kinases was performed following the protocol “Bac-to-Bac® Baculovirus Expression System” provided by the manufacturer (Invitrogen, ThermoFisher Scientific, Waltham, MA, USA).
(§4) To validate the kinase assay, model inhibitors were used for each tested enzyme: Staurosporine from Streptomyces sp. (#S5921, purity ≥ 95%, Sigma-Aldrich) for HsCK1ε; Indirubin-30-oxime (#I0404, purity ≥ 98%, Sigma-Aldrich) for HsGSK-3β, HsPim-1 and 2, human cyclin-dependent kinases, RnDYRK1A and MmCLK1; CHR-6494 (#SML0648, purity ≥ 98%, Sigma-Aldrich) for Haspin.

MV4-11 cells = test: MTT cell proliferation assay; format: cell-based, human; details: mean ± SEM; for IC50: Homo sapiens, MV4-11, 48 h
Description: (§5) Various types of hematological malignancies were selected for in vitro testing: the human acute myeloid leukemia (AML) cell line MV4-11, and the human chronic myeloid leukemia (CML) cell lines KU812 and K562. Indeed, Pim kinases are overexpressed in a wide range of hematopoietic malignancies. Solid tumors were also included in the panel of tested cell lines: MCF-7 (human breast adenocarcinoma), HT-29 (human colon adenocarcinoma), and HeLa (human cervical cancer) cells. Cytotoxic effects were evaluated using an MTT assay, and living cells were also counted with the trypan blue dye exclusion method for MV4-11, KU812, and K562 cells.
(§6) MV4-11, K562, and KU812 cell lines were obtained from the Deutshe Sammlung von Mikroorganismens und Zellkulturen (DSMZ) and maintained according to the supplier’s recommendations. All cell lines were cultured in RPMI, with 10% fetal bovine serum, 1% glutamine, and 1% penicillin/ streptomycin at 37 °C and 5% CO2.
(§7) MV4-11, K562, and KU812 cells’ viability was studied using a MTT cell proliferation assay.
(§8) MV4-11, K562, and KU812 cells were incubated with 10 μL of MTT working solution (5 g/L of methylthiazolyldiphenyl-tetrazolium bromide from Sigma Aldrich, Lyon, France) for 4 h. Cells were then lysed overnight at 37 °C with 100 μL of 10% SDS and 0.003% HCl. Optical density (OD) at 570 nm was measured using a spectrophotometer CLARIOstar® (BMG Labtech, Offenburg, Germany). Living cells were also counted with the trypan blue dye exclusion method. […] Data were collected from at least three independent experiments and the values reported are means ± standard errors of the mean (SEM).

MCF-7 cells = test: MTT cytotoxicity assay; format: cell-based; details: Homo sapiens, MCF7, 72 h
Description: as §5
(§9) The cancer cell lines MCF-7, HT-29, and HeLa were obtained from Cell Bank of Rio de Janeiro, Brazil, and were grown in RPMI-1640 medium and L929 cells were grown in Dulbecco’s Modified Eagle’s Medium (DMEM). Both media were supplemented with fetal bovine serum (FBS) (10% of the final concentration) followed by treatment with penicillin and streptomycin as antibiotics (1% of the final concentration). The crude was incubated in the presence of CO2 atmosphere (5%) for 24 h with the temperature monitored and maintained at 37 °C.
(§10) MCF-7, HT-29, HeLa, and L929 cells (3×10^5 cells/mL) were plated in 96-well plates and incubated in the presence of CO2 atmosphere (5%) for 24 h at 37 °C. […] Then, 25 μL of MTT (5 mg/mL in PBS) were added to each well and the plates were left for another 3 h in the incubator at 37 °C and at the end of this period, the supernatant was aspirated. To perform the reading, 100 μL of dimethylsulfoxide (DMSO) were added in each well for the dissolution of the formazan crystals. The amount of formazan was measured by reading the plate at 560 nm absorbance. […] Each sample was tested in triplicate in two independent experiments.

HeLa cells = test: MTT cytotoxicity assay; format: cell-based; details: Homo sapiens, 72 h
Description: as §5, §9, §10

L929 cells = test: MTT assay, in vitro toxicity on normal cells; format: cell-based; details: 72 h, normal mouse fibroblasts
Description: as §5, §9, §10

KU812 cells = test: MTT cell proliferation assay; format: cell-based; details: Homo sapiens, 48 h, mean ± SEM
Description: as §5, §6, §7, §8

K562 cells = test: MTT cell proliferation assay; format: cell-based; details: Homo sapiens, 48 h, mean ± SEM
Description: as §5, §6, §7, §8

HsCDK5/p25 = molecular target: T2, HsCDK5/p25 (Homo sapiens, UniProt Q00535); test: Kinase assay, luminescent ADP-Glo, 10 µM ATP; format: biochemical; details: duplicate, read-out: Kinase Enzymatic IC50 CDK5/p25
T2 construct: made in house; host or cells: Escherichia coli BL21 DE3 pLysS
T2 sequence (Q00535 whole entry): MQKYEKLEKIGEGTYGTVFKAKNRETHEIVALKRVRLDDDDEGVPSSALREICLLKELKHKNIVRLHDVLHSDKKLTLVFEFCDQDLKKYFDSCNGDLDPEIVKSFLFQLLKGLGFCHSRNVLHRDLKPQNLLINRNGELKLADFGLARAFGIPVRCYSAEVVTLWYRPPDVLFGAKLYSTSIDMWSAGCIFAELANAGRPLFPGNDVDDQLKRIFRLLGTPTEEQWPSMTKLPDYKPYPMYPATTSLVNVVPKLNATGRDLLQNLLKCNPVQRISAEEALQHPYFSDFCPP
T2 sequence (Q15078 99-307 partner limits assumed): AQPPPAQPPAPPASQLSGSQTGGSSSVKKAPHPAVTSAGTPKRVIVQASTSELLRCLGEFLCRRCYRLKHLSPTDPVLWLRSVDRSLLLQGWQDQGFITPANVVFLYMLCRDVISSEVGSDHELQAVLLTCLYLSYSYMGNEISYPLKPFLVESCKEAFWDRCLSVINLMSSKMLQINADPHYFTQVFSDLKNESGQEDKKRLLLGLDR
Protocol: as §1, §2, §3, §4

HsCDK9/CyclinT = molecular target: T3, HsCDK9/CyclinT (Homo sapiens, UniProt P50750); test: Kinase assay, luminescent ADP-Glo, 10 µM ATP; format: biochemical; details: duplicate, read-out: Kinase Enzymatic IC50 CDK9/CyclinT
T3 construct: made in house; host or cells: Sf9 insect cells (baculovirus, pFastBac)
T3 sequence (P50750 whole entry): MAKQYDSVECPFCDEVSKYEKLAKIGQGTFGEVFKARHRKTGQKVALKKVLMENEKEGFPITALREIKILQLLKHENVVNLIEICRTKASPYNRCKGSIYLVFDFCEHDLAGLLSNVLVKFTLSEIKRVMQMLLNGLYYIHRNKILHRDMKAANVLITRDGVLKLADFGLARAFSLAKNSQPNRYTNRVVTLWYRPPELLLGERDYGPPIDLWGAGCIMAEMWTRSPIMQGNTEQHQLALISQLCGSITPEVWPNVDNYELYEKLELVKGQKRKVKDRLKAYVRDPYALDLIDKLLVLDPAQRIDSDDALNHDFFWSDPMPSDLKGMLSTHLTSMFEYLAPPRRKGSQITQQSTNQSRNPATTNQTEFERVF
T3 sequence (O60563 whole entry partner): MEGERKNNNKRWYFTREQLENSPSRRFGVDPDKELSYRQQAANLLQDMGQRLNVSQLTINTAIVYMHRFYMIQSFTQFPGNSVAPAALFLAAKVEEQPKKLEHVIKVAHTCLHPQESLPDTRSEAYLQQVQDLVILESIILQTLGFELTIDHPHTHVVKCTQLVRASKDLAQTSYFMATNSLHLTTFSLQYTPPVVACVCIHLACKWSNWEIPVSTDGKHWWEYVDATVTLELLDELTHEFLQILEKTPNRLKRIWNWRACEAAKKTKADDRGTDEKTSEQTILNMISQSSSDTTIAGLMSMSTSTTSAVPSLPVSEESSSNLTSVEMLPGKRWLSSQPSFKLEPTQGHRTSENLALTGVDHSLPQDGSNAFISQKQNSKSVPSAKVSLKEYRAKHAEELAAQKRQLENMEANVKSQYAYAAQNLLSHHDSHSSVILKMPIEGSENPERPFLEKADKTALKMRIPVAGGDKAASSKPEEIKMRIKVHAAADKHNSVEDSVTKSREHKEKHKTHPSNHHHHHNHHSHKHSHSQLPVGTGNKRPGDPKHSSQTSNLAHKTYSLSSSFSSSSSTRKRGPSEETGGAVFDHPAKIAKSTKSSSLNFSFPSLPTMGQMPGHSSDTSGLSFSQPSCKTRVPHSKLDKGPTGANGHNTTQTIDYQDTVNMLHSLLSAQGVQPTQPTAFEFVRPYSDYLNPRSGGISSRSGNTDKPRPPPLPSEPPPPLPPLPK
Protocol: as §1, §2, §3, §4

HsPim-2 = molecular target: T4, HsPim-2 (Homo sapiens, UniProt Q9P1W9); test: Kinase assay, luminescent ADP-Glo, 10 µM ATP; format: biochemical; details: mean of n ≥ 3, read-out: IC50 Pim-2
T4 construct: made in house; host or cells: Escherichia coli BL21 DE3 pLysS
T4 sequence (Q9P1W9 whole entry): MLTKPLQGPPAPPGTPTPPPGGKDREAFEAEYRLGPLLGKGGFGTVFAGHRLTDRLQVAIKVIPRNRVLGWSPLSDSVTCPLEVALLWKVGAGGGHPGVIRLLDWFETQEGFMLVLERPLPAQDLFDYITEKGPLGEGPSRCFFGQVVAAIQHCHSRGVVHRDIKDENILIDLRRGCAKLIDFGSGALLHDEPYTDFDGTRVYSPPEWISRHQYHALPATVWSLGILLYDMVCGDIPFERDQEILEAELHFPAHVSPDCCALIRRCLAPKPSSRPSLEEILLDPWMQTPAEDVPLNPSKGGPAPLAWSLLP
Protocol: as §1, §2, §3, §4

MmCLK1 = molecular target: T5, MmCLK1 (Mus musculus, UniProt P22518); test: Kinase assay, luminescent ADP-Glo, 10 µM ATP; format: biochemical; details: ADP-Glo, 10 µM ATP, duplicate; read-out: Kinase Enzymatic IC50 CLK1
T5 construct: made in house; host or cells: Escherichia coli BL21 DE3 pLysS
T5 sequence (P22518 whole entry): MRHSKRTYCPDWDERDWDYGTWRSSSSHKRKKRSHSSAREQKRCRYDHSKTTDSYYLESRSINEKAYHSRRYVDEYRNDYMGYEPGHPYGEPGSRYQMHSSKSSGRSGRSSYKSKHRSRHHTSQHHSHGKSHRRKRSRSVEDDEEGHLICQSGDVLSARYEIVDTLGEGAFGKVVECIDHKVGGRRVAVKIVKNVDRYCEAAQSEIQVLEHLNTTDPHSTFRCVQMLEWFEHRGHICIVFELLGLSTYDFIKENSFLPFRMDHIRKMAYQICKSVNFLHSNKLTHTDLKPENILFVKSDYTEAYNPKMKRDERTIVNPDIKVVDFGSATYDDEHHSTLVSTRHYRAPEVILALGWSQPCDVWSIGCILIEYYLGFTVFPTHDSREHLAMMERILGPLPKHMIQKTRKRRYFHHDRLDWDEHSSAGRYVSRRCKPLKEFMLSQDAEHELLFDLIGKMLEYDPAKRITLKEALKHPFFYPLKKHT
Protocol: as §1, §2, §3, §4

[1] = Table 1, duplicate, read-out: Kinase Enzymatic IC50 Pim-1
[2] = Table 2, mean of n ≥ 3, read-out: IC50 Pim-1

IC50 (HsPim-1; [1])	melting point [°C]	IC50 (MV4-11 cells) [µM]	IC50 (HsPim-1; [2]) [µM]	IC50 (K562 cells) [µM]	IC50 (HsCDK5/p25) [µM]	IC50 (HsCDK9/CyclinT) [µM]	IC50 (HsPim-2) [µM]	IC50 (MmCLK1) [µM]	IC50 MV4-11 (MV4-11 cells; 48 h)	SMILES	IC50 (MCF-7 cells) [µM]	IC50 (HeLa cells) [µM]	IC50 (L929 cells) [µM]	IC50 (KU812 cells) [µM]
3.21 µM	298 to 299	–	–	–	–	–	–	–	–	COc1cc(OC)c2c(oc3c([N+](=O)[O-])cccc32)c1C(N)=O [Compound 14, 1,3-Dimethoxy-6-nitrodibenzo[b,d]furan-4-carboxamide]	–	–	–	–
0.18 µM	> 300	30.7 ± 1.1	0.18	> 100	–	–	–	–	–	NC(=O)c1c(O)cc(O)c2c1oc1c([N+](=O)[O-])cccc12 [Compound 15, 1,3-Dihydroxy-6-nitrodibenzo[b,d]furan-4-carboxamide]	> 100	24.7 ± 6.7	49.2 ± 1	78.4 ± 2.1
0.13 µM	–	10.1 ± 0.8	0.13	> 100	> 10	> 10	0.085	0.45	–	NC(=O)c1c(O)cc(O)c2c1oc1c(N)cccc12 [Compound 16, 6-Amino-1,3-dihydroxydibenzo[b,d]furan-4-carboxamide]	> 100	14.6 ± 7.2	> 100	> 100
0.23 µM	219 to 220	14.3 ± 1.1	0.23	> 100	–	–	–	0.26	–	NC(=O)c1c(O)cc(O)c2c1oc1ccccc12 [Compound 17, 1,3-Dihydroxydibenzo[b,d]furan-4-carboxamide]	> 100	9.5 ± 4.1	> 100	> 100
> 10 µM	293 to 294	–	–	–	–	–	–	–	–	COc1cc(OC)c2c(oc3c(N)cccc32)c1C(N)=O [Compound 18, 6-Amino-1,3-dimethoxydibenzo[b,d]furan-4-carboxamide]	–	–	–	–
> 10 µM	296 to 297	–	–	–	–	–	–	–	–	COc1cc(OC)c2c(oc3ccccc32)c1C(N)=O [Compound 19, 1,3-Dimethoxydibenzo[b,d]furan-4-carboxamide]	–	–	–	–
> 10 µM	–	–	–	–	–	–	–	–	–	COc1cc2oc3c(C(N)=O)c(OC)cc(OC)c3c2cc1C(C)=O [Compound 38, 8-Acetyl-1,3,7-trimethoxydibenzo[b,d]furan-4-carboxamide]	–	–	–	–
> 10 µM	332 to 333	–	–	–	–	–	–	–	–	COc1ccc2c(c1)oc1c(C(N)=O)c(OC)cc(OC)c12 [Compound 39, 1,3,7-Trimethoxydibenzo[b,d]furan-4-carboxamide]	–	–	–	–
> 10 µM	237 to 238	–	–	–	–	–	–	–	–	COc1cc(OC)c2c(oc3ccc(C(C)=O)cc32)c1C(N)=O [Compound 40, 8-Acetyl-1,3-dimethoxydibenzo[b,d]furan-4-carboxamide]	–	–	–	–
> 10 µM	250 to 251	–	–	–	–	–	–	–	–	COc1cc(OC)c2c(oc3ccc(C(F)(F)F)cc32)c1C(N)=O [Compound 42, 1,3-Dimethoxy-8-(trifluoromethyl)dibenzo[b,d]furan-4-carboxamide]	–	–	–	–
0.82 µM	335 to 336	52.2 ± 1.7	0.82	> 100	–	–	0.14	–	–	CC(=O)c1cc2c(cc1O)oc1c(C(N)=O)c(O)cc(O)c12 [Compound 43, 8-Acetyl-1,3,7-trihydroxydibenzo[b,d]furan-4-carboxamide]	> 100	57.1 ± 7.6	> 100	> 100
> 1 µM and 2.35 µM	347 to 348	> 100	2.35	> 100	–	–	–	–	inactive	NC(=O)c1c(O)cc(O)c2c1oc1ccc(C(F)(F)F)cc12 [Compound 47, 1,3-Dihydroxy-8-(trifluoromethyl)dibenzo[b,d]furan-4-carboxamide]	–	–	–	> 100
–	–	0.03 ± 0.003	–	3.7 ± 1.5	–	–	–	–	–	CN1CCC(CNc2ccc3ncc(-c4cccc(OC(F)(F)F)c4)n3n2)CC1 [SGI-1776, reference compound]	–	–	–	3.5 ± 0.6
